Patent publication US12721832B2, “Anti-senescence plant polyphenol drug downregulating senescence-related secretory phenotype and use thereof” (BYHEALTH CO., LTD., priority 2021, dated 2026)

Assays:
[1] = system: cancer cells in the lesion; assay: DNA damage and apoptosis in tumor lesions (LCM, caspase 3 cleavage IHC); format: in vivo, mice
Source text: The signals of Caspase 3 cleaved […] in the lesion of each group of mice were in sharp contrast. Scale bar, 200 μm.
To investigate mechanisms directly supporting this senescence-associated pattern with expression and reversal of SASP in MIT-administered mice, we dissected tumors in animals treated with both drugs 7 days after the first PCC1 administration, and the time point of 7 days after administration was selected mainly because drug-resistant clones had not yet formed in cancer cells in the lesion at this time. […] As supporting evidence, when PCC1 was applied during treatment, caspase 3 cleavage activity was increased, which was a typical hallmark of apoptosis (FIG. 29).

aged C57BL/6 mice [2] = assay: Lifespan study in aged C57BL/6 mice; format: in vivo; details: from age 24-27 months
Description: Starting at 24 to 27 months of age, C57BL/6 mice received intraperitoneal administration of vehicle or PCC1 every two weeks (n=80 for vehicle group; n=91 for PCC1 group). The median survival of animals in each group was calculated and indicated. ****, P<0.0001.
Starting at 24 to 27 months of age, C57BL/6 mice received intraperitoneal administration of vehicle or PCC1 every two weeks (n=80 for vehicle group; n=91 for PCC1 group). The median lifetime survival of animals in each group was calculated and indicated. ****, P <0.0001.
For the cell transplantation study, we obtained […] male C57BL/6 mice by serial rearing in the SPF animal platform, with 4 to 5 animals per cage. We first sorted the mice by body weight from low to high, and then selected mice with similar body weights. Next, the mice were assigned to senescence (SEN) or control (CTRL) transplant treatment at each interval using a random number generator, while the middle mice were assigned to the other treatment, so that the body weights of the senescence and control transplant mice were matched. One month after cell transplantation, when the mice were 18 months old, physical function tests were performed. After that, no further testing was done on the mice other than checking their cages. The earliest deaths occurred approximately 2 months after the last physical function test. […]

senescent PSC27 cells = assay: Caspase 3/7 activity / drug-induced apoptosis in senescent cells; format: cell-based, human
Description: PSC27 cells gradually entered the senescent stage after being treated with BLEO for 12 hours under culture conditions. 50 μM PCC1 was added to the medium of senescent cells starting from day 7, NucLight Rapid Red reagent was used to label the cells, and caspase 3/7 reagent (IncuCyte) was used for apoptosis detection. Caspase 3/7 activity was detected every 4 hours (n=3).
Statistical differences are obtained by two-way ANOVA (Turkey' test).
PSC27 cells were plated in a 96-well dish, and the cells were induced to senescence under the treatment of 50 μg/mL BLEO. PCC1 and ABT263 were added at concentrations of 50 μM and 1.0 μM, respectively. Cell culture medium was supplemented with Incucyte Nuclight fast Red Reagent (Essen Bioscience) and Incucyte C-3/7 Apoptosis Reagent (Essen Bioscience). Representative field of view was selected to take pictures.

aged C57BL/6 mice [3] = assay: Physical ability test in aged mice; format: in vivo; details: males and females, PCC1 biweekly
Description: N=5. ^, P>0.05; **, P<0.01.
N=5/group. , P>0.05; ***, P<0.001.
All testing began on day 5 after the last placebo or drug treatment. Maximum walking speed was assessed using the accelerated RotaRod System (TSE System, Chesterfiled, Mo.). The mice were trained on the RotaRod for 3 days at speeds of 4, 6 and 8 r.p.m, lasted for 200 seconds on the 1st, 2nd and 3rd days. On the test day, the mice were placed on the RotaRod, and the test was performed starting at a speed of 4 r.p.m. The rotation speed was accelerated from 4 to 40 r.p.m at intervals of 5 minutes. When the mice fell off the RotaRod, the speed was recorded. The final results were averaged from 3 or 4 trials and normalized to baseline speed. […]
Forelimb grip strength (N) was measured using a Grip Strength Meter (Columbus Instruments, Columbus, Ohio), and the results were averaged from more than 10 trials. […] The mice were only allowed to grasp the wire with their forelimbs, and the hang time was normalized to body weight and expressed as hang duration (sec) x body weight (g). […] Their daily activity and food intake were monitored for 24 h (12 hours of light and 12 hours of dark) by a Comprehensive Laboratory Animal Monitoring System (CLAMS). […] The distance was recorded after the test, and the total work (KJ) was calculated with the following formula: mass (kg)×g (9.8 m/s^2)×distance (m)×sin) (5°).

In the case of `Oc1cc(O)c2c(c1)O[C@H](c1ccc(O)c(O)c1)[C@H](O)[C@H]2c1c(O)cc(O)c2c1O[C@H](c1ccc(O)c(O)c1)[C@H](O)[C@H]2c1c(O)cc(O)c2c1O[C@H](c1ccc(O)c(O)c1)[C@H](O)C2` [PCC1, procyanidin C1], the “indices of DNA damage or apoptosis” value ([1]; PCC1 administered to MIT-treated animals) is reported as “significantly enhanced”, the “caspase 3 cleavage activity” value ([1]; PCC1 applied during MIT treatment) is reported as “increased” and the “degree of DNA damage and apoptosis” value ([1]; single agent vs placebo, 7 days after first PCC1 administration) is reported as “could not induce DNA damage or cause apoptosis”. The “risk of death HR, PCC1 group/vehicle group” value (aged C57BL/6 mice [2]; P<0.0001) was 0.35, the “median survival period after treatment, longer than vehicle group” value (aged C57BL/6 mice [2]; drug every two weeks) was 64.2% and the “time after addition from which caspase-3/7 activity differs statistically between senescent and control group” value (senescent PSC27 cells; 50 μM PCC1) was 16 h. For the same compound, the “effect on proliferating cells (apoptosis)” value (senescent PSC27 cells; proliferating PSC27) was “basically not targeted or affected” and the “physical function during the last 2 months of life vs vehicle” value (aged C57BL/6 mice [3]) was “did not show a significant decrease”.
